Laboratory results taken from patent publication US5102891A, “1-(substituted pyridinylamino)-1H-indol-5-yl substituted carbamates” (priority 1990, dated 1992).
Where two headings read alike, the source gives them in different places.

Assays:
[1] = biological target: T1, Acetylcholinesterase (AChE) (Rattus norvegicus, UniProt P37136); test: biochemical; conditions: rat striatum homogenate, 10 min preincubation at 37° C., pH 7.2, acetylthiocholine 5 mM final; read-out: Inhibitory Concentration Brain AChE
T1 construct: corpora striata dissected free, weighed and homogenized in 19 volumes; from tissue; host or cells: corpora striata of male Wistar rats, whole homogenate
Experimental: Cholinesterases are found throughout the body, both in the brain and in serum. However, only brain acetylcholinesterase (AChE) distribution is correlated with central cholinergic innervation.
The method described below was used in this invention for assaying cholinesterase activity.
1. 0.05M Phosphate buffer, pH 7.2
(c) add (a) to (b) until pH reaches 7.2
4. A 2 mM stock solution of the test drug is made up in a suitable solvent and q.s. to volume with 0.5 mM DTNB (reagent 3). Drugs are serially diluted (1:10) such that the final concentration (in cuvette) is 10^-4 M and screened for activity. If active, IC50 values are determined from the inhibitory activity of subsequent concentrations.
Male Wistar rats are decapitated, brains rapidly removed, corpora striata dissected free, weighed and homogenized in 19 volumes (approximately 7 mg protein/ml) of 0.05M phosphate buffer, pH 7.2 using a Potter-Elvehjem homogenizer. […]
Enzyme activity is measured with the Beckman DU-50 spectrophotometer. […]
Blank values are determined for each run to control for non-enzymatic hydrolysis of substrate and these values are automatically subtracted by the kindata program available on kinetics soft-pac module. This program also calculates the rate of absorbance change for each cuvette. […]

[2] = system: Scopolamine Induced Memory Deficit; assay type: in vivo, mice
Experimental: In this assay mice are tested for their ability to remember an unpleasant stimulus for a period of 24 hours. A mouse is placed in a chamber that contains a dark compartment; a strong incandescent light drives it to the dark compartment, where an electric shock is administered through metal plates on the floor. The animal is removed from the testing apparatus and tested again, 24 hours later, for the ability to remember the electric shock.
If scopolamine, an anticholinergic that is known to cause memory impairment, is administered before an animal's initial exposure to the test chamber, the animal re-enters the dark compartment shortly after being placed in the test chamber 24 hours later. This effect of scopolamine is blocked by an active test compound, resulting in a greater interval before re-entry into the dark compartment.
The results for an active compound are expressed as the percent of a group of animals in which the effect of scopolamine is blocked, as manifested by an increased interval between being placed in the test chamber and re-entering the dark compartment.

T1 sequence (P37136 32-614): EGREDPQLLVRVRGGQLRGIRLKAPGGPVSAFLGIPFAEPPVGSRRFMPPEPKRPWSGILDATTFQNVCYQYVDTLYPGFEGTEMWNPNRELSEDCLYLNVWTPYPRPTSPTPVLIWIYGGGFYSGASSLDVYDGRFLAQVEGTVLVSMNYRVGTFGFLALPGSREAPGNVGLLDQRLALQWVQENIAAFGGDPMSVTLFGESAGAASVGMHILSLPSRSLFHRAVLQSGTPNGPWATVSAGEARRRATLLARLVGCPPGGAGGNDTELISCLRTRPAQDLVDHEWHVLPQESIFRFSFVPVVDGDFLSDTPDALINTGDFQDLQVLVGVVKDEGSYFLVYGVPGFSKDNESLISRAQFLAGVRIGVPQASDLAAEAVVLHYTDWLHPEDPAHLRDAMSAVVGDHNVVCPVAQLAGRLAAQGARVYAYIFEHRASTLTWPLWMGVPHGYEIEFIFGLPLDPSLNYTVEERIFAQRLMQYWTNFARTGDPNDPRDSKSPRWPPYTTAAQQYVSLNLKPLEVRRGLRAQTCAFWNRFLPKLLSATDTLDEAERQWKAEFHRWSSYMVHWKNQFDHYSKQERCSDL

How did the IC50 [1] turn out when `CCCN(c1ccncc1)n1ccc2cc(OC(=O)NC)ccc21` [1-(Propyl-4-pyridinylamino)-1H-indol-5-yl methylcarbamate] was run?
Its IC50 is 0.0023 µM.

And the “% of Animals with Scopolamine Induced Memory Deficit Reversal” value (“% of Animals” for short) ([2]; mice, 0.35 mg/kg of body weight, s.c., retest 24 hours)?
The value was 21%.

`CC[C@@H]1C(=O)OC[C@@H]1Cc1cncn1C` [Pilocarpine] was tested. Which “% of Animals” value ([2]; mice, 5.0 mg/kg of body weight, s.c., retest 24 hours) did it give?
Its value is 13%.

For `CCCN(c1ccncc1)n1ccc2cc(OC(=O)N[C@@H](C)c3ccccc3)ccc21` [(S)-(-)-1-(Propyl-4-pyridinylamino)-1H-indol-5-yl 1-phenylethylcarbamate], which IC50 [1] is on record?
The IC50 was 30.2 µM.

For `Nc1c2c(nc3ccccc13)CCCC2` [Tacrine], which “% of Animals” value ([2]; mouse, in vivo, sc, 0.63 mg/kg) is on record?
Its value is 13%.
